Biological target: T1, human h-15-LOX-1 (Homo sapiens, UniProt P16050)
T1 sequence (P16050 1-662): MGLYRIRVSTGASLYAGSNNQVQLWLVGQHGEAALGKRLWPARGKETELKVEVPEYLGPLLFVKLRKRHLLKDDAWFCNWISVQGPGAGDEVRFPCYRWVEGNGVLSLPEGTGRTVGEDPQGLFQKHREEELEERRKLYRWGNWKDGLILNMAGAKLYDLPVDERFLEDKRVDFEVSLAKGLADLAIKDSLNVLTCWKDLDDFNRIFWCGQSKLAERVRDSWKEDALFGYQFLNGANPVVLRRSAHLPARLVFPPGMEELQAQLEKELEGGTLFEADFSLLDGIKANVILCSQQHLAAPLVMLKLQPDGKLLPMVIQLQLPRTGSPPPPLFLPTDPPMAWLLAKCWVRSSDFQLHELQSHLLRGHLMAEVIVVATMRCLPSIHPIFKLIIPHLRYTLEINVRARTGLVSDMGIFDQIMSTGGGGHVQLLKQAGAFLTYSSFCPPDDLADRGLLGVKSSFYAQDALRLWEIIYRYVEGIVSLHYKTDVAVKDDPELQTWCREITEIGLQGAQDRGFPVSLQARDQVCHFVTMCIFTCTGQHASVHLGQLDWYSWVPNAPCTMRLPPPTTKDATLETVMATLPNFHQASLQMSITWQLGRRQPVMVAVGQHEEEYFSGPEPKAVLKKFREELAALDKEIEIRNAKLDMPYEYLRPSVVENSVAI
Assay: Human h-15-LOX-1 screening UV assay
Assay type: biochemical
Settings: for h-15-LOX-1 inhibitory potency ranking at 50 µM (in words): 10 min pre-incubation
Procedure: The residual enzyme activity was measured after 10 min pre-incubation with the tested compounds at room temperature. […] Compound c11 follows.
The assay buffer consists of HEPES titrated to pH 7.5 using a concentrated aqueous solution of NaOH. Linoleic acid (LA) was used as a substrate. The linear absorbance increase in absence of the inhibitor was set as 100%, whereas the absorbance increase in absence of the enzyme was set to 0%. All experiments were performed in triplicate and the average triplicate values and their standard deviations are plotted. The vertical axis describes the residual enzyme activity percent % of the human h-15-LOX-1, whereas the horizontal axis describes the concentration of 50 µM of the compounds. The half maximal inhibitor concentration (IC50) of the inhibitors for h-15-LOX-1 was determined using the same assay (Figure 6 and Figure 7).

Row | SMILES | h-15-LOX-1 inhibitory potency ranking at 50 µM (in words) | IC50 (read-out: h-15-LOX-1 Inhb. IC50) [µM]
1 | O=C(/C=C/C=C/c1ccc([N+](=O)[O-])cc1)c1ccc(OCCCOc2ccc(C(=O)/C=C/C=C/c3ccc([N+](=O)[O-])cc3)cc2)cc1 [c11, (2E,2′E,4E,4′E)-1,1′-((propane-1,3-diylbis(oxy))bis(4,1-phenylene))bis(5-(4-nitrophenyl)penta-2,4-dien-1-one)] | (2nd potent at 50 μM) | 
2 | O=C(/C=C/c1cccc2ccccc12)c1ccccc1O [b4, (E)-1-(2-hydroxyphenyl)-3-(naphthalen-1-yl) prop-2-en-1-one] | highest activity within the group | 9.5

— paper PMC6337391 (Molecules, 2019)
